According to patent US7074961B2, “Antidepressants and their analogues as long-acting local anesthetics and analgesics” (The Brigham and Women's Hospital, Inc., priority 2000, dated 2006):
Values joined by “and” are separate entries in the source; they are usually repeats but may differ in a detail not shown here. Identical values can stand only once. Like-named read-outs stand apart in the source and are kept apart here. Blank lines part the entries; values can stand above or below the molecule they belong to.

Legend:
rat sciatic nerve = assay: Rat sciatic nerve blockade with neurobehavioral examination (proprioception, motor function, nocifensive reaction); assay type: in vivo; settings: for Development of sciatic nerve blockade after injection: all rats
Excerpt: Male Sprague-Dawley rats were purchased from Taconic Farm, Inc., Germantown, N.Y., and kept in animal housing facilities with controlled humidity (20-30% relative humidity), room temperature, and a 12-h (6:00 AM-6:00 PM) light-dark cycle. Rats were handled before behavioral testing to familiarize them with the experiment and to minimize stress-induced analgesia. At the time of injections, animals weighed approximately 250-300 g. The experimenter was blinded to the drug/concentration used.
For sciatic nerve blockade, rats were lightly anesthetized by inhalation of sevoflurane and the landmarks (greater trochanter and ischial tuberosity) of the left hind limb were localized. […] The right hind limb was used as a control.
Neurobehavioral examination consisted of evaluation of motor function, proprioception, and nocifensive reaction immediately before inhalation of sevoflurane, at 2, 4, 6, 8, 10, 15, 20, 25, 30, 45, and 60 minutes after the injection, and then at 30-minute intervals until 750 minutes (12.5 hours). The following is a brief description of the neurobehavioral examination.
Motor function. Motor function was evaluated by measuring the “extensor postural thrust” of the hind limbs. The rat was held upright with the hind limb extended so that the body's weight was supported by the distal metatarsus and toes. The extensor thrust was measured as the gram force applied to a digital platform balance (Ohaus Lopro, Fisher Scientific, Florham Park, N.J.), the force that resists contact of the platform by the heel. The preinjection control value (range 130-165 gram) was considered 0% of the maximal possible effect (MPE). The reduction in this force, representing reduced extensor muscle contraction due to motor blockade, was calculated as a percentage of the control force. A force less than 20 grams (also referred to as weight of the “flaccid limb”) was considered 100% MPE.
Proprioception. Proprioception evaluation was based on resting posture and postural reactions (“tactile placing” and “hopping”). The functional deficit was graded as 3 (normal) or 0% MPE, 2 (slightly impaired), 1 (severely impaired), and 0 (complete) or 100% MPE. Keeping the rat in a normal resting posture with the toes flexed and the dorsi of the feet placed on the supporting surface, we evaluated tactile placing as the ability to reposition the toes.
Hopping response was evoked by lifting the front half of the animal off the ground and then lifting one hind limb at a time off the ground so that the animal moved laterally. This process normally evokes a prompt hopping with the weight-bearing limb in the direction of movement to avoid falling over. A predominantly motor impairment causes a prompt but weaker than normal response. Conversely with a predominantly proprioceptive blockade, delayed hopping is followed by greater lateral hops to avoid falling over or, in case of full blockade, no hopping at all.
Nocifensive reaction. Nocifensive reaction was evaluated by the withdrawal reflex and/or vocalization to pinch of a skin fold over the lateral metatarsus (cutaneous pain) and of the distal phalanx of the fifth toe (deep pain). Nocifensive reaction was graded 4 (normal or 0% MPE), 3 (25% MPE), 2 (50% MPE), 1 (75% MPE), and 0 (absent or 100% MPE).

Na+ channels = assay: Whole-cell voltage clamp of Na+ currents in GH3 cells; assay type: cell-based, rat; settings: for Use-dependent (additional) blockade of Na+ currents: 3 μM, high-frequency stimulation at 5 Hz, 60 pulses; for Na+ channels blocked in the inactivated state / Na+ channels blocked in the resting state: 10 μM; for Na+ channels blocked in the inactivated state: conditioning pulse of −60 mV; for Na+ channels blocked in the inactivated state / Na+ channels blocked in the resting state / IC50: GH3 cells; for Na+ channels blocked in the resting state: conditioning pulse of −150 mV; for Time to complete washout: all concentrations and all protocols
Description: The whole-cell configuration of the patch-clamp technique was used to record macroscopic Na^+ currents at room temperatures ranging from 21 to 23 degrees Celsius. Command voltages were controlled by pCLAMP software (Axons Instruments, Inc., Foster City, Calif.) and delivered by a List-EPC7 patch clamp amplifier (List-Electronic, Darmstadt/Eberstadt, Germany). After the establishment of whole-cell configuration, cells were dialyzed for 30 minutes before data were acquired. Data were filtered at 5 kHz, sampled at 50 kHz, collected, and stored with pCLAMP software. Leak and capacitance currents were subtracted by P/4 protocol, which was not applied in the use-dependent block of Na^+ currents. Pipette electrodes were filled with an internal solution containing (in mM) 100 NaF, 30 NaCl, 10 ethylene glycol-bis(β-aminoethylether)N,N,N′,N′-tetraacetic acid (EGTA), and 10 hydroxyethylpiperazineethane sulfonic acid (HEPES) titrated with CsOH to pH 7.2. The external solution consisted of (in mM) 85 choline Cl, 65 NaCl, 2 CaCl2, and 10 HEPES titrated with tetramethylammoniumhydroxide to pH 7.4. Rat clonal pituitary GH3 cells were purchased from the American Type Culture, Collection (Rockville, Md.). Cells were split twice a week and maintained in Dulbecco's modified Eagle's medium supplemented with penicillin/streptomycin (1%) and heat-inactivated fetal bovine serum (10%). The 35 mm-culture dishes in which the cells were grown were also used as a recording chamber. To determine the voltage-dependent blockade by amitriptyline or bupivacaine, a prepulse or conditioning pulse at various voltages and long enough to permit the drug-channel binding interaction to reach its steady-state level was applied (pulse protocol and representative tracings are shown in FIG. 4A). In order to determine the potency of amitriptyline and bupivacaine for the resting and inactivated states, dose-response curves were subsequently constructed at holding potentials of −150 mV and −60 mV, respectively (FIG. 5). Finally, additional blockade provoked by high-frequency stimulation (use dependent blockade) was investigated (pulse protocol and representative tracings are shown in FIG. 6A).

[1] = reportedly; cited from earlier work
[2] = single injection at 5 mM into the rat sciatic notch
[3] = holding potential −60 mV, read-out: 50% inhibitory concentration (IC50), inactivated state
[4] = holding potential −150 mV, read-out: 50% inhibitory concentration (IC50), resting state

Structure (SMILES): C[N+](C)(C)CC/C=C1\c2ccccc2COc2ccccc21 [N-methyl doxepin, N-methyl doxepin bromide]
Duration for complete blockage of motor (rat sciatic nerve; 5 mM, pH 7.4): 5.0 ± 0.5 h | Duration for complete blockage of nociception (rat sciatic nerve; 5 mM, pH 7.4): 5.3 ± 0.3 h | Duration for complete blockage of proprioception (rat sciatic nerve; 5 mM, pH 7.4): 5.0 ± 0.5 h | Time to reach full recovery of motor (rat sciatic nerve; 5 mM, pH 7.4): 10.3 ± 0.2 h | Time to reach full recovery of nociception (rat sciatic nerve; 5 mM, pH 7.4): 9.9 ± 0.2 h | Time to reach full recovery of proprioception (rat sciatic nerve; 5 mM, pH 7.4): 9.5 ± 0.3 h | Development of sciatic nerve blockade after injection (rat sciatic nerve): complete sciatic nerve blockade

Structure (SMILES): C[N+](C)(CCC=C1c2ccccc2CCc2ccccc21)CCc1ccccc1.[Br-] [N-phenyl-ethyl amitriptyline, N-phenyl-ethyl amitriptyline bromide]
Extension of duration of complete nerve block over parent drug (rat sciatic nerve; 5 mM, 5 vs. 70 hrs): more than 10 fold | Duration of complete sciatic nerve block (rat sciatic nerve; [2]): 70 to 80 h | Full recovery of function (rat sciatic nerve; [2]): 5 to 6 days | Inhibition of sodium channels in vitro (Na+ channels): strong tonic and use-dependent inhibition

IC50 (Na+ channels; [3]): 0.9 ± 0.1 µM | IC50 (Na+ channels; [4]): 141 ± 4.4 µM
Structure (SMILES): CN(C)CCC=C1c2ccccc2CCc2ccccc21 [amitriptyline]
Duration of complete blockade, motor (rat sciatic nerve; 5 mM): 168.7 ± 7.9 min | Duration of complete blockade, nociception (rat sciatic nerve; 5 mM): 217.5 ± 19.4 min | Time to full recovery of function, motor function (rat sciatic nerve; 5 mM): 270 ± 13.9 min | Time to full recovery of function, nociception (rat sciatic nerve; 5 mM): 352.5 ± 12.4 min | Time to full recovery of function, proprioception (rat sciatic nerve; 5 mM): 255.0 ± 11.3 min | Duration of complete blockade, motor (rat sciatic nerve; 10 mM): 402.9 ± 27.7 min | Duration of complete blockade, nociception (rat sciatic nerve; 10 mM): 454.8 ± 38.4 min and 454.3 ± 38.4 min | Duration of complete blockade, proprioception (rat sciatic nerve; 10 mM): 467.1 ± 35.8 min | Time to full recovery of function, motor function (rat sciatic nerve; 10 mM): 582.6 ± 32.6 min | Time to full recovery of function, nociception (rat sciatic nerve; 10 mM): 655.7 ± 27.3 min | Time to full recovery of function, proprioception (rat sciatic nerve; 10 mM): 578.6 ± 39.7 min | Onset: time to full nociceptive, motor and proprioceptive blockade (rat sciatic nerve; 0.2 ml 5 mM at sciatic nerve): 30 min | Onset: time to full nociceptive, motor and proprioceptive blockade (rat sciatic nerve; 0.2 ml 10 mM at sciatic nerve): 6 min | Development of sciatic nerve blockade after injection (rat sciatic nerve): complete sciatic nerve blockade | Use-dependent (additional) blockade of Na+ currents (Na+ channels): ~50% | Na+ channels blocked in the inactivated state (Na+ channels): > 95% | Na+ channels blocked in the resting state (Na+ channels): ~15% | Time to complete washout (Na+ channels): ≤ 5 min | Hill coefficient, inactivated state (Na+ channels; −60 mV): 1.35±0.15 | Potency relative to bupivacaine, inactivated state (Na+ channels; −60 mV): ~10 × | Hill coefficient, resting state (Na+ channels; −150 mV): 1.56±0.03 | Potency relative to bupivacaine, resting state (Na+ channels; −150 mV): ~15 ×

IC50 (Na+ channels; [3]): 9.5 ± 0.6 µM | IC50 (Na+ channels; [4]): 9.5 ± 0.6 µM
Structure (SMILES): CCCCN1CCCCC1C(=O)Nc1c(C)cccc1C (centres unmarked) [bupivacaine]
Duration of complete blockade, motor (rat sciatic nerve; 15.4 mM): 87.5 ± 14.7 min | Duration of complete blockade, nociception (rat sciatic nerve; 15.4 mM): 90 ± 13.4 min | Duration of complete blockade, proprioception (rat sciatic nerve; 15.4 mM): 90 ± 13.4 min | Time to full recovery of function, motor function (rat sciatic nerve; 15.4 mM): 160.0 ± 6.3 min | Time to full recovery of function, proprioception (rat sciatic nerve; 15.4 mM): 155.0 ± 9.2 min | Onset: time to full nociceptive, motor and proprioceptive blockade (rat sciatic nerve; 0.2 ml 15.4 mM at sciatic nerve): 4 min | Use-dependent (additional) blockade of Na+ currents (Na+ channels): ~14% | Na+ channels blocked in the inactivated state (Na+ channels): > 70% | Na+ channels blocked in the resting state (Na+ channels): essentially none | Time to complete washout (Na+ channels): ≤ 3 min | Hill coefficient, inactivated state (Na+ channels; −60 mV): 1.16±0.08 | Hill coefficient, resting state (Na+ channels; −150 mV): 1.12±0.04 | Duration of major nerve block [1]: three to twelve
